Numbered stars: 1 amine (or outer) side, 2 acyl side, 3 side chain; on linkers, the order of the positions; unused ones are H or OH. Bridge positions count the residues as written; N and C are the ends. Square brackets hold non-standard residues; d marks the D form. Peptide text beside a SMILES is read from it. * marks the point of attachment. ξ: configuration not given here. X29 = O=C([C@H](Cc1ccc(-c2cc(F)cc(F)c2)cc1)N[*:1])[*:2]; Phe(4-COOH) = N[C@@H](Cc1ccc(C(=O)O)cc1)C(=O)O; Bip = N[C@@H](Cc1ccc(-c2ccccc2)cc1)C(=O)O; Phe(4-CN) = N#Cc1ccc(C[C@H](N)C(=O)O)cc1; Phe(3-Me) = Cc1cccc(C[C@H](N)C(=O)O)c1; Bta = N[C@@H](Cc1csc2ccccc12)C(=O)O; Lys(Me2) = CN(C)CCCC[C@H](N)C(=O)O; Val(3-OH) = CC(C)(O)[C@H](N)C(=O)O; aIle = CC[C@@H](C)[C@H](N)C(=O)O; 4Pal = N[C@@H](Cc1ccncc1)C(=O)O; Cha = N[C@@H](CC1CCCCC1)C(=O)O; Ile(3ξ) = CCC(C)[C@H](N)C(=O)O; Ala(CN) = N#CC[C@H](N)C(=O)O; Carboxymethyl = O=C(O)C*; NMeA = CN[C@@H](C)C(=O)O; Dab = NCC[C@H](N)C(=O)O; Dap = NC[C@H](N)C(=O)O; ξV = CC(C)C(N)C(=O)O; ξC = NC(CS)C(=O)O
What follows are molecules tested against T1, PE-labeled human PD-L1-Ig binding to Jurkat cell line over-expressing human PD-1 (Jurkat-PD-1) (Homo sapiens, UniProt Q15116) (assay: Jurkat-PD-1 Cell Binding High-Content Screening Assay (CBA): Method 1). Settings: Jurkat-hPD-1 cells, PE-labeled PD-L1-Ig 20 nM final; read-out: Jurkat HPDL1 PD1 IC50 (uM) (Method 1).
T1 construct: expressed in transfected cells; host or cells: Jurkat
T1 sequence (Q15116 25-288): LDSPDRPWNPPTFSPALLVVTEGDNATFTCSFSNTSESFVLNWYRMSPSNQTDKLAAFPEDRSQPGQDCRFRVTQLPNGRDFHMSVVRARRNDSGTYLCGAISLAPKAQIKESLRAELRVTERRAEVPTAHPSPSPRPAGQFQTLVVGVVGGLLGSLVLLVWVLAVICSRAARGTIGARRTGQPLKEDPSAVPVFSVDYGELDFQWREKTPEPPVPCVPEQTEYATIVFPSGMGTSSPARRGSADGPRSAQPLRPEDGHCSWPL

Point of comparison: CC[C@H](C)[C@@H]1NC(=O)[C@H](Cc2ccc(-c3ccccc3)cc2)NC(=O)[C@H](C(C)C)NC(=O)[C@H](Cc2c[nH]c3ccccc23)NC(=O)[C@H](CC(=O)O)NC(=O)[C@H](Cc2ccc(O)cc2)NC(=O)[C@H](CCC(N)=O)NC(=O)CSC[C@@H](C(=O)N[C@@H](C)C(N)=O)NC(=O)[C@H]([C@@H](C)O)NC(=O)[C@H](C(C)C)NC(=O)[C@H](CC(C)C)NC(=O)[C@H](CCN)NC(=O)[C@@H](CC(C)C)NC(=O)[C@H](C)N(C)C1=O [Compound 1391] ({CH2CO}-QYDWV[Bip]I[NMeA][dL][Dab]LVTCA-NH2; thioether N-14), IC50 0.03 µM. Against it:
- CC(C)C[C@H]1NC(=O)[C@H](C)N(C)C(=O)[C@H](Cc2ccc(C(=O)O)cc2)NC(=O)[C@H](Cc2ccc(-c3ccccc3)cc2)NC(=O)[C@H](CCC(N)=O)NC(=O)[C@H](Cc2c[nH]c3ccccc23)NC(=O)[C@H](CC(=O)O)NC(=O)[C@H](Cc2ccc(OCC(=O)O)cc2)NC(=O)[C@H](Cc2ccc(OCC(=O)O)cc2)NC(=O)CSC[C@@H](C(=O)N[C@@H](CO)C(N)=O)NC(=O)[C@H](CCC(=O)O)NC(=O)[C@H](C(C)(C)O)NC(=O)[C@H](CC2CCCCC2)NC(=O)[C@H](CCN)NC1=O [Compound 2198] ({CH2CO}-Y(Carboxymethyl)Y(Carboxymethyl)DWQ[Bip][Phe(4-COOH)][NMeA][dL][Dab][Cha][Val(3-OH)]ECS-NH2; thioether N-14) — 3.7-fold higher, 0.11 µM
- CCC(C)[C@@H]1NC(=O)[C@H](Cc2ccc(-c3ccccc3)cc2)NC(=O)[C@H](C(C)C)NC(=O)[C@H](Cc2cccc(C)c2)NC(=O)[C@H](CC(=O)O)NC(=O)[C@H](Cc2ccc(OCC(=O)O)cc2)NC(=O)[C@H](CCCCN(C)C)NC(=O)CSCC(C(=O)NCC(N)=O)NC(=O)[C@H](CO)NC(=O)[C@H](C(C)C)NC(=O)[C@H](CC(C)C)NC(=O)[C@H](CC(N)=O)NC(=O)[C@@H](CC(C)C)NC(=O)[C@H](C)N(C)C1=O (stereo partly drawn) [Compound 2063] ({CH2CO}-[Lys(Me2)]Y(Carboxymethyl)D[Phe(3-Me)]V[Bip][Ile(3ξ)][NMeA][dL]NLVS[ξC]G-NH2; thioether N-14) — 1.7-fold higher, 0.05 µM
- CC(C)C[C@@H]1NC(=O)[C@H](CCN)NC(=O)[C@@H](CC(C)C)NC(=O)[C@H](C)N(C)C(=O)[C@H](CCC(=O)O)NC(=O)[C@H](Cc2ccc(-c3ccccc3)cc2)NC(=O)[C@H](C(C)C)NC(=O)[C@H](Cc2c[nH]c3ccccc23)NC(=O)[C@H](CC(=O)O)NC(=O)[C@H](Cc2ccncc2)NC(=O)[C@H](CN)NC(=O)CSC[C@@H](C(=O)N[C@@H](C)C(N)=O)NC(=O)[C@H](CO)NC(=O)[C@H](C(C)C)NC1=O [Compound 1576] ({CH2CO}-[Dap][4Pal]DWV[Bip]E[NMeA][dL][Dab]LVSCA-NH2; thioether N-14) — 3.7-fold higher, 0.11 µM
- CC(C)C[C@@H]1NC(=O)[C@H](CCCNC(=N)N)NC(=O)[C@@H](CC(C)C)NC(=O)[C@H](C)N(C)C(=O)[C@H](CCCNC(=N)N)NC(=O)[C@H](Cc2ccc(-c3ccccc3)cc2)NC(=O)[C@H](C(C)C)NC(=O)[C@H](Cc2c[nH]c3ccccc23)NC(=O)[C@H](CC(=O)O)NC(=O)[C@H](Cc2ccc(OCC(=O)O)cc2)NC(=O)[C@H](Cc2ccccc2)NC(=O)CSC[C@@H](C(=O)N[C@@H](C)C(N)=O)NC(=O)[C@H]([C@@H](C)O)NC(=O)[C@H](C(C)C)NC1=O [Compound 1094] ({CH2CO}-FY(Carboxymethyl)DWV[Bip]R[NMeA][dL]RLVTCA-NH2; thioether N-14) — 26-fold higher, 0.77 µM
- Cc1cccc(C[C@@H]2NC(=O)[C@H](CC(=O)O)NC(=O)[C@H](Cc3ccc(OCC(=O)O)cc3)NC(=O)[C@H](Cc3ccncc3)NC(=O)CSC[C@@H](C(=O)N[C@H](C)C(N)=O)NC(=O)[C@H](CO)NC(=O)[C@H](C(C)(C)O)NC(=O)[C@H](CC3CCCCC3)NC(=O)[C@H](CCN)NC(=O)[C@@H](CC(C)C)NC(=O)[C@H](C)N(C)C(=O)[C@H](Cc3ccc(OCC(=O)O)cc3)NC(=O)[C@H](Cc3ccc(-c4ccccc4)cc3)NC(=O)[C@H](Cc3ccc(C(=O)O)cc3)NC2=O)c1 [Compound 2183] ({CH2CO}-[4Pal]Y(Carboxymethyl)D[Phe(3-Me)][Phe(4-COOH)][Bip]Y(Carboxymethyl)[NMeA][dL][Dab][Cha][Val(3-OH)]SC[dA]-NH2; thioether N-14) — 3.7-fold higher, 0.11 µM
- Cc1cccc(C[C@@H]2NC(=O)[C@H](CC(=O)O)NC(=O)[C@H](Cc3ccc(C(=O)O)cc3)NC(=O)[C@H](Cc3ccc(OCC(=O)O)cc3)NC(=O)CSC[C@@H](C(=O)N[C@@H](CO)C(N)=O)NC(=O)[C@H](CO)NC(=O)[C@H](C(C)C)NC(=O)[C@H](CC(C)C)NC(=O)[C@H](CCN)NC(=O)[C@@H](CC(C)C)NC(=O)[C@H](C)N(C)C(=O)[C@H](C(C)C)NC(=O)[C@H](Cc3ccc(-c4ccccc4)cc3)NC(=O)[C@H](CC(C)C)NC2=O)c1 [Compound 2111] ({CH2CO}-Y(Carboxymethyl)[Phe(4-COOH)]D[Phe(3-Me)]L[Bip]V[NMeA][dL][Dab]LVSCS-NH2; thioether N-14) — 3-fold lower, 0.01 µM
- CC[C@@H](C)[C@@H]1NC(=O)[C@H](Cc2ccc(-c3ccccc3)cc2)NC(=O)[C@H](CC(C)C)NC(=O)[C@H](Cc2c[nH]c3ccccc23)NC(=O)[C@H](CC(=O)O)NC(=O)[C@H](Cc2ccc(C(=O)O)cc2)NC(=O)[C@H](Cc2ccc(OCC(=O)O)cc2)NC(=O)CSC[C@@H](C(=O)N[C@@H](CCCCN)C(N)=O)NC(=O)[C@H](CC#N)NC(=O)C(C(C)C)NC(=O)[C@H](CC(C)C)NC(=O)[C@H](CC(N)=O)NC(=O)[C@@H](CC(C)C)NC(=O)[C@H](C)N(C)C1=O (stereo partly drawn) [Compound 2106] ({CH2CO}-Y(Carboxymethyl)[Phe(4-COOH)]DWL[Bip][aIle][NMeA][dL]NL[ξV][Ala(CN)]CK-NH2; thioether N-14) — 2-fold higher, 0.06 µM
- CC(C)C[C@@H]1NC(=O)[C@H](Cc2c[nH]c3ccccc23)NC(=O)[C@H](CC(=O)O)NC(=O)[C@H](Cc2ccc(C(=O)O)cc2)NC(=O)[C@H](Cc2ccc(OCC(=O)O)cc2)NC(=O)CSC[C@@H](C(=O)NCC(N)=O)NC(=O)[C@H](CO)NC(=O)[C@H](C(C)C)NC(=O)[C@H](CC(C)C)NC(=O)[C@H](CC(N)=O)NC(=O)[C@@H](CC(C)C)NC(=O)[C@H](C)N(C)C(=O)[C@H](C(C)C)NC(=O)[C@H](Cc2ccc(-c3ccccc3)cc2)NC1=O [Compound 1548] ({CH2CO}-Y(Carboxymethyl)[Phe(4-COOH)]DWL[Bip]V[NMeA][dL]NLVSCG-NH2; thioether N-14) — 3-fold lower, 0.01 µM
- CC(C)C[C@@H]1NC(=O)[C@H](CCN)NC(=O)[C@@H](CC(C)C)NC(=O)[C@H](C)N(C)C(=O)[C@H](Cc2cnc[nH]2)NC(=O)[C@H](Cc2ccc(-c3ccccc3)cc2)NC(=O)[C@H](C(C)C)NC(=O)[C@H](Cc2c[nH]c3ccccc23)NC(=O)[C@H](CC(=O)O)NC(=O)[C@H](Cc2ccc(O)cc2)NC(=O)[C@H](CC(N)=O)NC(=O)CSC[C@@H](C(=O)N[C@@H](C)C(N)=O)NC(=O)[C@H]([C@@H](C)O)NC(=O)[C@H](C(C)C)NC1=O [Compound 1302] ({CH2CO}-NYDWV[Bip]H[NMeA][dL][Dab]LVTCA-NH2; thioether N-14) — 1.5-fold lower, 0.02 µM
- CC(C)C[C@@H]1NC(=O)[C@H](CCCNC(=N)N)NC(=O)[C@H](Cc2csc3ccccc23)NC(=O)[C@H](C)N(C)C(=O)[C@H](CCCNC(=N)N)NC(=O)[C@H](Cc2ccc(-c3ccccc3)cc2)NC(=O)[C@H](C(C)C)NC(=O)[C@H](Cc2c[nH]c3ccccc23)NC(=O)[C@H](CC(=O)O)NC(=O)[C@H](Cc2ccc(O)cc2)NC(=O)[C@H](CC(N)=O)NC(=O)CSC[C@@H](C(=O)N[C@@H](C)C(N)=O)NC(=O)[C@H](CO)NC(=O)[C@H](C(C)C)NC1=O [Compound 1055] ({CH2CO}-NYDWV[Bip]R[NMeA][Bta]RLVSCA-NH2; thioether N-14) — 3.7-fold higher, 0.11 µM
- CC(C)C[C@@H]1NC(=O)CSC[C@@H](C(=O)NCC(N)=O)NC(=O)[C@H](CO)NC(=O)[C@H](C(C)C)NC(=O)[C@H](CC(C)C)NC(=O)[C@H](CC(N)=O)NC(=O)[C@H](CC(N)=O)NC(=O)[C@H](C)N(C)C(=O)[C@H](C(C)C)NC(=O)[C@H](Cc2ccc(-c3ccccc3)cc2)NC(=O)[C@H](CC(C)C)NC(=O)[C@H](Cc2c[nH]c3ccccc23)NC(=O)[C@H](CC(=O)O)NC(=O)[C@H](Cc2ccc(O)cc2)NC1=O [Compound 1815] ({CH2CO}-LYDWL[Bip]V[NMeA]NNLVSCG-NH2; thioether N-14) — 10-fold higher, 0.31 µM
- CC(C)C[C@@H]1NC(=O)[C@H](CCN)NC(=O)[C@@H](CC(C)C)NC(=O)[C@H](C)N(C)C(=O)[C@H](CCCNC(=N)N)NC(=O)[C@H](Cc2ccc(-c3cc(F)cc(F)c3)cc2)NC(=O)[C@H](C(C)C)NC(=O)[C@H](Cc2c[nH]c3ccccc23)NC(=O)[C@H](CC(=O)O)NC(=O)[C@H](Cc2ccc(O)cc2)NC(=O)[C@H](CC(N)=O)NC(=O)CSC[C@@H](C(=O)N[C@@H](C)C(N)=O)NC(=O)[C@H]([C@@H](C)O)NC(=O)[C@H](C(C)C)NC1=O [Compound 1220] ({CH2CO}-NYDWV[X29]R[NMeA][dL][Dab]LVTCA-NH2; thioether N-14) — 8.7-fold higher, 0.26 µM
- CC(C)C[C@@H]1NC(=O)[C@H](CCN)NC(=O)[C@@H](CC(C)C)NC(=O)[C@H](C)N(C)C(=O)[C@H](CCCNC(=N)N)NC(=O)[C@H](Cc2ccc(-c3ccccc3)cc2)NC(=O)[C@H](C(C)C)NC(=O)[C@H](Cc2c[nH]c3ccccc23)NC(=O)[C@H](CC(=O)O)NC(=O)[C@H](Cc2ccc(C#N)cc2)NC(=O)[C@H](Cc2ccncc2)NC(=O)CSC[C@@H](C(=O)N[C@@H](C)C(N)=O)NC(=O)[C@H]([C@@H](C)O)NC(=O)[C@H](C(C)C)NC1=O [Compound 1446] ({CH2CO}-[4Pal][Phe(4-CN)]DWV[Bip]R[NMeA][dL][Dab]LVTCA-NH2; thioether N-14) — 2.7-fold higher, 0.08 µM
- Cc1cccc(C[C@@H]2NC(=O)[C@H](CC(=O)O)NC(=O)[C@H](Cc3ccc(OCC(=O)O)cc3)NC(=O)[C@H](CN)NC(=O)CSC[C@@H](C(N)=O)NC(=O)[C@H]([C@@H](C)O)NC(=O)[C@H](C(C)C)NC(=O)[C@H](CC3CCCCC3)NC(=O)[C@H](CCN)NC(=O)[C@@H](CC(C)C)NC(=O)[C@H](C)N(C)C(=O)[C@H](Cc3ccc(OCC(=O)O)cc3)NC(=O)[C@H](Cc3ccc(-c4ccccc4)cc3)NC(=O)[C@H](Cc3ccc(OCC(=O)O)cc3)NC2=O)c1 [Compound 1650] ({CH2CO}-[Dap]Y(Carboxymethyl)D[Phe(3-Me)]Y(Carboxymethyl)[Bip]Y(Carboxymethyl)[NMeA][dL][Dab][Cha]VTC-NH2; thioether N-14) — 2.7-fold higher, 0.08 µM

— patent publication US20240409585A1, “MACROCYCLIC IMMUNOMODULATORS” (priority 2021, published 2024)
